Experimental data published in US10947252B2, “Inhibitors of KEAP1-Nrf2 protein-protein interaction” (Janssen Pharmaceutica NV, priority 2018, dated 2021).
pEC50, pKd: −log10 of the molar value.

How the values were obtained:
[1] = molecular target: Kelch domain of human KEAP1 (321-624 aa) (Homo sapiens (Human), UniProt Q14145); experiment: KEAP1 KELCH ThermoFluor binding assay; settings: KEAP Kelch […], 1,8-ANS, pH 7.0, average of results obtained, read-out: Tf Kd;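 also: Ligand-induced melting temperature shift of E. coli-expressed KEAP1 Kelch protein, Kd estimated from concentration-response curves of ΔTm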
Kelch domain of human KEAP1 (321-624 aa), sequence (Q14145 321-624): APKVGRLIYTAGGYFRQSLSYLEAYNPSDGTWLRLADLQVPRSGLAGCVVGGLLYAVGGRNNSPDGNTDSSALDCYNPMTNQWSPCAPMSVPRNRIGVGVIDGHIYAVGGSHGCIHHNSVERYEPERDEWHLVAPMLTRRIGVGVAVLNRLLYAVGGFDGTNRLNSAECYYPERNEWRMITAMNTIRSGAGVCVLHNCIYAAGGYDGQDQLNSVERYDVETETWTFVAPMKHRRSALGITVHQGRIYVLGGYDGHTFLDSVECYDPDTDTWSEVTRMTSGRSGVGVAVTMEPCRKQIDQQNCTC

[2] = tested on: Glo-Response ARE-luc2P HEK293 cell line; experiment: ARE luciferase reporter cell-based assay; settings: Homo sapiens, HEK293, 24 h, average of results obtained;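 also: luciferase signal tracks Nrf2 activation of the ARE once compounds disrupt KEAP1-Nrf2 binding, read with One-Glo reagent, DMSO serving as low control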

Row | pKd [1] | Compound | pEC50 [2]
1 | > 9.00 | CCn1nnc2c(C)c([C@H](CC(=O)O)c3ccc(C)c(CN4CC5(COC5)Oc5ccccc5S4(=O)=O)n3)ccc21 (single isomer, unassigned) [Example 238, (*S)-3-(6-((1,1-Dioxidospiro[benzo[b][1,4,5]oxathiazepine-4,3′-oxetan]-2(3H)-yl)methyl)-5-methylpyridin-2-yl)-3-(1-ethyl-4-methyl-1H-benzo[d][1,2,3]triazol-5-yl)propanoic Acid] | 8.01
2 | 8.72 | CCn1nnc2c(C)c([C@@H](CC(=O)O)c3ccc(C)c(CN4CC5(COC5)Oc5ccccc5S4(=O)=O)n3)ccc21 (single isomer, unassigned) [Example 239, (*R)-3-(6-((1,1-Dioxidospiro[benzo[b][1,4,5]oxathiazepine-4,3′-oxetan]-2(3H)-yl)methyl)-5-methylpyridin-2-yl)-3-(1-ethyl-4-methyl-1H-benzo[d][1,2,3]triazol-5-yl)propanoic Acid] | 7.36
3 | > 9.00 | CCn1nnc2c(C)c([C@H](CC(=O)O)c3ccc(C)c(CN4CC5(COC5)Oc5ncccc5S4(=O)=O)n3)ccc21 (single isomer, unassigned) [Example 241, (*S)-3-(6-((1′,1′-Dioxidospiro[oxetane-3,4′-pyrido[2,3-b][1,4,5]oxathiazepin]-2′(3′H)-yl)methyl)-5-methylpyridin-2-yl)-3-(1-ethyl-4-methyl-1H-benzo[d][1,2,3]triazol-5-yl)propanoic Acid] | 7.55
4 | 8.74 | CCn1nnc2c(C)c([C@@H](CC(=O)O)c3ccc(C)c(CN4CC5(COC5)Oc5ncccc5S4(=O)=O)n3)ccc21 (single isomer, unassigned) [Example 242, (*R)-3-(6-((1′,1′-Dioxidospiro[oxetane-3,4′-pyrido[2,3-b][1,4,5]oxathiazepin]-2′(3′H)-yl)methyl)-5-methylpyridin-2-yl)-3-(1-ethyl-4-methyl-1H-benzo[d][1,2,3]triazol-5-yl)propanoic Acid] | 6.96
5 | > 9.00 | CCn1nnc2c(C)c([C@H](CC(=O)O)c3ccc(C)c(CN4CC5(CC5)Oc5ncccc5S4(=O)=O)n3)ccc21 (single isomer, unassigned) [Example 244, (*S)-3-(6-((1′,1′-Dioxidospiro[cyclopropane-1,4′-pyrido[2,3-b][1,4,5]oxathiazepin]-2′(3′H)-yl)methyl)-5-methylpyridin-2-yl)-3-(1-ethyl-4-methyl-1H-benzo[d][1,2,3]triazol-5-yl)propanoic Acid] | 7.46
6 | > 9.00 | CCn1nnc2c(C)c([C@@H](CC(=O)O)c3ccc(C)c(CN4CC5(CC5)Oc5ncccc5S4(=O)=O)n3)ccc21 (single isomer, unassigned) [Example 245, (*R)-3-(6-((1′,1′-Dioxidospiro[cyclopropane-1,4′-pyrido[2,3-b][1,4,5]oxathiazepin]-2′(3′H)-yl)methyl)-5-methylpyridin-2-yl)-3-(1-ethyl-4-methyl-1H-benzo[d][1,2,3]triazol-5-yl)propanoic Acid] | 6.85
7 | > 9.00 | CC[C@@H]1CN(Cc2cc([C@H](CC(=O)O)c3cc(OC(F)F)c4c(c3)nnn4C)ccc2C)S(=O)(=O)c2cccnc2O1 (single isomer, unassigned) [Example 250, (*S)-3-(7-(Difluoromethoxy)-1-methyl-1H-benzo[d][1,2,3]triazol-5-yl)-3-(3-(((R)-4-ethyl-1,1-dioxido-3,4-dihydro-2H-pyrido[2,3-b][1,4,5]oxathiazepin-2-yl)methyl)-4-methylphenyl)propanoic Acid] | 7.48
8 | > 9.00 | CC[C@@H]1CN(Cc2cc([C@@H](CC(=O)O)c3cc(OC(F)F)c4c(c3)nnn4C)ccc2C)S(=O)(=O)c2cccnc2O1 (single isomer, unassigned) [Example 251, (*R)-3-(7-(Difluoromethoxy)-1-methyl-1H-benzo[d][1,2,3]triazol-5-yl)-3-(3-(((R)-4-ethyl-1,1-dioxido-3,4-dihydro-2H-pyrido[2,3-b][1,4,5]oxathiazepin-2-yl)methyl)-4-methylphenyl)propanoic Acid] | 7.62
9 | > 9.00 | Cc1ccc([C@H](CC(=O)O)c2ccn3c(C(F)(F)F)nnc3c2)cc1CN1C[C@@H]2CCCN2c2ncccc2S1(=O)=O (single isomer, unassigned) [Example 254, (*S)-3-(3-(((S)-5,5-Dioxido-7a,8,9,10-tetrahydropyrido[2,3-f]pyrrolo[2,1-d][1,2,5]thiadiazepin-6(7H)-yl)methyl)-4-methylphenyl)-3-(3-(trifluoromethyl)-[1,2,4]triazolo[4,3-a]pyridin-7-yl)propanoic Acid] | 5.47
10 | > 9.00 | Cc1ccc([C@@H](CC(=O)O)c2ccn3c(C(F)(F)F)nnc3c2)cc1CN1C[C@@H]2CCCN2c2ncccc2S1(=O)=O (single isomer, unassigned) [Example 255, (*R)-3-(3-(((S)-5,5-Dioxido-7a,8,9,10-tetrahydropyrido[2,3-f]pyrrolo[2,1-d][1,2,5]thiadiazepin-6(7H)-yl)methyl)-4-methylphenyl)-3-(3-(trifluoromethyl)-[1,2,4]triazolo[4,3-a]pyridin-7-yl)propanoic Acid] | 6.04
11 | > 9.00 | CC[C@@H]1CN(Cc2cc([C@H](CC(=O)O)c3ccn4c(C(F)(F)F)nnc4c3)ccc2C)S(=O)(=O)c2cccnc2O1 (single isomer, unassigned) [Example 257, (*S)-3-(3-(((R)-4-Ethyl-1,1-dioxido-3,4-dihydro-2H-pyrido[2,3-b][1,4,5]oxathiazepin-2-yl)methyl)-4-methylphenyl)-3-(3-(trifluoromethyl)-[1,2,4]triazolo[4,3-a]pyridin-7-yl)propanoic Acid] | 6.24
12 | > 9.00 | CC[C@@H]1CN(Cc2cc(C(CC(=O)O)c3ccn4c(C(F)(F)F)nnc4c3)ccc2C)S(=O)(=O)c2cccnc2O1 (single isomer, unassigned) [Example 258, (*R)-3-(3-(((R)-4-Ethyl-1,1-dioxido-3,4-dihydro-2H-pyrido[2,3-b][1,4,5]oxathiazepin-2-yl)methyl)-4-methylphenyl)-3-(3-(trifluoromethyl)-[1,2,4]triazolo[4,3-a]pyridin-7-yl)propanoic Acid] | 6.37
13 | > 9.00 | Cc1ccc([C@H](CC(=O)O)c2ccn3c(C(F)(F)F)nnc3c2C)cc1CN1CC2(COC2)Oc2ncccc2S1(=O)=O (single isomer, unassigned) [Example 260, (*S)-3-(3-((1′,1′-Dioxidospiro[oxetane-3,4′-pyrido[2,3-b][1,4,5]oxathiazepin]-2′(3′H)-yl)methyl)-4-methylphenyl)-3-(8-methyl-3-(trifluoromethyl)-[1,2,4]triazolo[4,3-a]pyridin-7-yl)propanoic Acid] | 7.00
14 | > 9.00 | Cc1ccc([C@@H](CC(=O)O)c2ccn3c(C(F)(F)F)nnc3c2C)cc1CN1CC2(COC2)Oc2ncccc2S1(=O)=O (single isomer, unassigned) [Example 261, (*R)-3-(3-((1′,1′-Dioxidospiro[oxetane-3,4′-pyrido[2,3-b][1,4,5]oxathiazepin]-2′(3′H)-yl)methyl)-4-methylphenyl)-3-(8-methyl-3-(trifluoromethyl)-[1,2,4]triazolo[4,3-a]pyridin-7-yl)propanoic Acid] | 5.86
15 | > 9.00 | Cc1ccc([C@H](CC(=O)O)c2ccn3c(C(F)(F)F)nnc3c2C)cc1CN1C[C@H]2CCCN2c2ccccc2S1(=O)=O (single isomer, unassigned) [Example 266, (*S)-3-(3-(((R)-5,5-Dioxido-7a,8,9,10-tetrahydrobenzo[f]pyrrolo[2,1-d][1,2,5]thiadiazepin-6(7H)-yl)methyl)-4-methylphenyl)-3-(8-methyl-3-(trifluoromethyl)-[1,2,4]triazolo[4,3-a]pyridin-7-yl)propanoic Acid] | 7.84
16 | > 9.00 | Cc1ccc([C@@H](CC(=O)O)c2ccn3c(C(F)(F)F)nnc3c2C)cc1CN1C[C@H]2CCCN2c2ccccc2S1(=O)=O (single isomer, unassigned) [Example 267, (*R)-3-(3-(((R)-5,5-Dioxido-7a,8,9,10-tetrahydrobenzo[f]pyrrolo[2,1-d][1,2,5]thiadiazepin-6(7H)-yl)methyl)-4-methylphenyl)-3-(8-methyl-3-(trifluoromethyl)-[1,2,4]triazolo[4,3-a]pyridin-7-yl)propanoic Acid] | 7.04
17 | > 9.00 | Cc1ccc([C@H](CC(=O)O)c2ccn3c(C(F)(F)F)nnc3c2C)cc1CN1CC(C)(C)Oc2ncccc2S1(=O)=O (single isomer, unassigned) [Example 269, (*S)-3-(3-((4,4-Dimethyl-1,1-dioxido-3,4-dihydro-2H-pyrido[2,3-b][1,4,5]oxathiazepin-2-yl)methyl)-4-methylphenyl)-3-(8-methyl-3-(trifluoromethyl)-[1,2,4]triazolo[4,3-a]pyridin-7-yl)propanoic Acid] | 6.44
18 | 8.89 | Cc1ccc([C@@H](CC(=O)O)c2ccn3c(C(F)(F)F)nnc3c2C)cc1CN1CC(C)(C)Oc2ncccc2S1(=O)=O (single isomer, unassigned) [Example 270, (*R)-3-(3-((4,4-Dimethyl-1,1-dioxido-3,4-dihydro-2H-pyrido[2,3-b][1,4,5]oxathiazepin-2-yl)methyl)-4-methylphenyl)-3-(8-methyl-3-(trifluoromethyl)-[1,2,4]triazolo[4,3-a]pyridin-7-yl)propanoic Acid] | 5.62

Row | Compound | pKd [1] | pEC50 [2]
19 | Cc1ccc([C@@H](CC(=O)O)c2cc(OC(F)F)c3c(c2)nnn3C)cc1CN1C[C@H]2CCCN2c2ncccc2S1(=O)=O (single isomer, unassigned) [Example 248, (*R)-3-(7-(Difluoromethoxy)-1-methyl-1H-benzo[d][1,2,3]triazol-5-yl)-3-(3-(((R)-5,5-dioxido-7a,8,9,10-tetrahydropyrido[2,3-f]pyrrolo[2,1-d][1,2,5]thiadiazepin-6(7H)-yl)methyl)-4-methylphenyl)propanoic Acid] | > 9.00 | 7.31
